Test results as given in patent US11667652B2, “MCL1 inhibitors” (Gilead Sciences, Inc., priority 2019, dated 2023).
Where two headings read alike, the source gives them in different places.

Key:
[1] = biological target: MCL1/Bim (Homo sapiens (Human), UniProt Q07820); assay: MCL1/Bim Binding AlphaLISA Assay; conditions: recombinant human 6xHis-MCL1 (171-327), biotinylated Bim peptide (51-76)
How it was run: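 AlphaLISA with 0.0625 nM human 6×His-MCL1 (171-327) and 0.0625 nM biotinylated Bim (51-76) peptide in 20 mM Hepes pH 7.5, 150 mM NaCl, 0.002% Brij 35, 1 mM DTT, 0.01% BSA. Compound preincubated with MCL1 1 h, Bim added 2 h, then acceptor and donor beads 1 h each; % inhibition versus DMSO and no-protein/peptide controls.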

[2] = test system: SKBR3 cells; assay: SKBR3 Cell Viability Assay; format: cell-based; conditions: CellTiter Glo, read-out: MCL1 CV SKBR3 EC50
How it was run: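 Viability was measured by CellTiter-Glo luminescence after 72 h at 37° C, 5% CO2. Each well held 6,000 SKBR3 cells in McCoy's 5A/10% FBS dispensed onto serially diluted compound. Percent inhibition is relative to DMSO and 10 μM puromycin controls.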

[3] = Homo sapiens, SK-BR-3, 72 hours

Sequence of MCL1/Bim (Q07820 171-327): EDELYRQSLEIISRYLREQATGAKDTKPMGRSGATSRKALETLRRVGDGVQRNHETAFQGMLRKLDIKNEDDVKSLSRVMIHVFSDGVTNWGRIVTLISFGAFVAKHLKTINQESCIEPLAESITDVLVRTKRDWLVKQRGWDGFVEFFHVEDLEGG

| SMILES | IC50 [1] [nM] | EC50 ([2]; 72 hours) [nM] | EC50 [2, 3] [nM] |
| --- | --- | --- | --- |
| COc1nn(C)cc1C(=O)N[S@@]1(=O)=NC(=O)c2ccc3c(c2)N(C[C@@H]2CC[C@H]2[C@@](O)(CC(=O)N2CCOCC2)/C=C/C[C@H](C)C1)C[C@@]1(CCCc2cc(Cl)ccc21)CO3 [Example 98] | 0.031 | 73.3 | – |
| COc1nn(C)cc1C(=O)N[S@@]1(=O)=NC(=O)c2ccc3c(c2)N(C[C@@H]2CC[C@H]2[C@@](O)(CC(=O)N2CCOCC2)/C=C/C[C@H](C)C1)C[C@@]1(CCCc2cc(Cl)ccc21)CO3 [Example 99] | 0.034 | 14.2 | – |
| COc1nn(C)cc1C(=O)N[S@@]1(=O)=NC(=O)c2ccc3c(c2)N(C[C@@H]2CC[C@H]2[C@@](O)(CC(=O)N2CCN(C)CC2)/C=C/C[C@H](C)C1)C[C@@]1(CCCc2cc(Cl)ccc21)CO3 [Example 100] | 0.038 | 35.4 | – |
| COc1nn(C)cc1C(=O)N[S@@]1(=O)=NC(=O)c2ccc3c(c2)N(C[C@@H]2CC[C@H]2[C@](O)(CC(=O)N2CCN(C)CC2)/C=C/C[C@H](C)C1)C[C@@]1(CCCc2cc(Cl)ccc21)CO3 [Example 101] | 0.026 | 27 | – |
| COc1nn(C)cc1C(=O)N[S@@]1(=O)=NC(=O)c2ccc3c(c2)N(C[C@@H]2CC[C@H]2[C@@](O)(CC(=O)N2CCN4CCOCC4C2)/C=C/C[C@H](C)C1)C[C@@]1(CCCc2cc(Cl)ccc21)CO3 (stereo partly shown) [Example 102] | 0.026 | 16.1 | – |
| COc1nn(C)cc1C(=O)N[S@@]1(=O)=NC(=O)c2ccc3c(c2)N(C[C@@H]2CC[C@H]2[C@](O)(CC(=O)N2CCN4CCOCC4C2)/C=C/C[C@H](C)C1)C[C@@]1(CCCc2cc(Cl)ccc21)CO3 (stereo partly shown) [Example 103] | 0.074 | 34.6 | – |
| COc1nn(C)cc1C(=O)N[S@@]1(=O)=NC(=O)c2ccc3c(c2)N(C[C@@H]2CC[C@H]2[C@@](O)(CC(=O)N2CCN(C4COC4)CC2)/C=C/C[C@H](C)C1)C[C@@]1(CCCc2cc(Cl)ccc21)CO3 [Example 104] | 0.034 | 54 | – |
| COc1nn(C)cc1C(=O)N[S@@]1(=O)=NC(=O)c2ccc3c(c2)N(C[C@@H]2CC[C@H]2[C@](O)(CC(=O)N2CCN(C4COC4)CC2)/C=C/C[C@H](C)C1)C[C@@]1(CCCc2cc(Cl)ccc21)CO3 [Example 105] | 0.112 | 163 | – |
| COc1nn(C)cc1C(=O)N[S@@]1(=O)=NC(=O)c2ccc3c(c2)N(C[C@@H]2CC[C@H]2[C@@](O)(CC(=O)N2CC(N4CCOCC4)C2)/C=C/C[C@H](C)C1)C[C@@]1(CCCc2cc(Cl)ccc21)CO3 [Example 106] | 0.038 | 133 | – |
| COc1nn(C)cc1C(=O)N[S@@]1(=O)=NC(=O)c2ccc3c(c2)N(C[C@@H]2CC[C@H]2[C@](CN2CCN4CCOC[C@@H]4C2)(OC)/C=C/C[C@H](C)C1)C[C@@]1(CCCc2cc(Cl)ccc21)CO3 [Example 111] | 0.211 | – | 26.3 |
| COc1nn(C)cc1C(=O)N[S@@]1(=O)=NC(=O)c2ccc3c(c2)N(C[C@@H]2CC[C@H]2[C@@](CN2CCN4CCOC[C@@H]4C2)(OC)/C=C/C[C@H](C)C1)C[C@@]1(CCCc2cc(Cl)ccc21)CO3 [Example 112] | 0.086 | – | 10.4 |
| COc1nn(C)cc1C(=O)N[S@@]1(=O)=NC(=O)c2ccc3c(c2)N(C[C@@H]2CC[C@H]2[C@@](O)(CCN2CCOCC2)/C=C/C[C@H](C)C1)C[C@@]1(CCCc2cc(Cl)ccc21)CO3 [Example 113] | 0.132 | 35.4 | – |
| COc1nn(C)cc1C(=O)N[S@@]1(=O)=NC(=O)c2ccc3c(c2)N(C[C@@H]2CC[C@H]2[C@](O)(CCN2CCOCC2)/C=C/C[C@H](C)C1)C[C@@]1(CCCc2cc(Cl)ccc21)CO3 [Example 114] | 0.319 | 51 | – |
| COc1nn(C)cc1C(=O)N[S@@]1(=O)=NC(=O)c2ccc3c(c2)N(C[C@@H]2CC[C@H]2[C@](CN2CCN(C4COC4)CC2)(OC)/C=C/C[C@H](C)C1)C[C@@]1(CCCc2cc(Cl)ccc21)CO3 [Example 115] | 0.029 | – | 16 |
| COc1nn(C)cc1C(=O)N[S@@]1(=O)=NC(=O)c2ccc3c(c2)N(C[C@@H]2CC[C@H]2[C@@](CN2CCN(C4COC4)CC2)(OC)/C=C/C[C@H](C)C1)C[C@@]1(CCCc2cc(Cl)ccc21)CO3 [Example 116] | 0.102 | – | 13.4 |

Further lines, results first:

| IC50 [1] [nM] | EC50 ([2]; 72 hours) [nM] | EC50 [2, 3] [nM] | SMILES |
| --- | --- | --- | --- |
| 0.055 | 170 | – | COc1nn(C)cc1C(=O)N[S@@]1(=O)=NC(=O)c2ccc3c(c2)N(C[C@@H]2CC[C@H]2[C@@H](OC)/C=C/[C@H](OCCn2ccnc2)[C@H](C)C1)C[C@@]1(CCCc2cc(Cl)ccc21)CO3 [Example 88] |
| 0.177 | 88.4 | – | COc1nn(C)cc1C(=O)N[S@@]1(=O)=NC(=O)c2ccc3c(c2)N(C[C@@H]2CC[C@H]2[C@@H](OC)/C=C/[C@H](OC(C)=O)[C@H](C)[C@H]1C)C[C@@]1(CCCc2cc(Cl)ccc21)CO3 [Example 91] |
| 2.59 | 796 | – | COc1nn(C)cc1C(=O)N[S@@]1(=O)=NC(=O)c2ccc3c(c2)N(C[C@@H]2CC[C@H]2[C@H](OC)/C=C/[C@H](OC(C)=O)[C@H](C)[C@H]1C)C[C@@]1(CCCc2cc(Cl)ccc21)CO3 [Example 92] |
| 0.457 | – | 556 | COc1nn(C)cc1C(=O)N[S@@]1(=O)=NC(=O)c2ccc3c(c2)N(C[C@@H]2CC[C@H]2[C@@H](OC)/C=C/[C@@H](OC)[C@H](C)C1)C[C@@]1(CCCc2cc(Cl)ccc21)CO3 [Example 93] |
| 4.39 | – | 3630 | COc1nn(C)cc1C(=O)N[S@@]1(=O)=NC(=O)c2ccc3c(c2)N(C[C@@H]2CC[C@H]2[C@@](C)(OC)/C=C/C[C@H](C)C1)C[C@@]1(CCCc2cc(Cl)ccc21)CO3 [Example 95] |
| 0.075 | 1410 | – | COc1nn(C)cc1C(=O)N[S@@]1(=O)=NC(=O)c2ccc3c(c2)N(C[C@@H]2CC[C@H]2[C@](O)(CC(=O)N(C)C)/C=C/C[C@H](C)C1)C[C@@]1(CCCc2cc(Cl)ccc21)CO3 [Example 96] |
| 0.047 | 15.8 | – | COc1nn(C)cc1C(=O)N[S@@]1(=O)=NC(=O)c2ccc3c(c2)N(C[C@@H]2CC[C@H]2[C@@](O)(CC(=O)N(C)C)/C=C/C[C@H](C)C1)C[C@@]1(CCCc2cc(Cl)ccc21)CO3 [Example 97] |
| 0.048 | 6 | – | COc1nn(C)cc1C(=O)N[S@@]1(=O)=NC(=O)c2ccc3c(c2)N(C[C@@H]2CC[C@H]2[C@@](O)(C#CCN(C)C)/C=C/C[C@H](C)C1)C[C@@]1(CCCc2cc(Cl)ccc21)CO3 [Example 108] |
| 0.028 | 35.3 | – | COc1nn(C)cc1C(=O)N[S@@]1(=O)=NC(=O)c2ccc3c(c2)N(C[C@@H]2CC[C@H]2[C@](O)(C#CCN(C)C)/C=C/C[C@H](C)C1)C[C@@]1(CCCc2cc(Cl)ccc21)CO3 [Example 109] |
| 0.045 | 27.6 | – | COc1nn(C)cc1C(=O)N[S@@]1(=O)=NC(=O)c2ccc3c(c2)N(C[C@@H]2CC[C@H]2C(O)(C#CCN(C)C)/C=C/C[C@H](C)C1)C[C@@]1(CCCc2cc(Cl)ccc21)CO3 (stereo partly shown) [Example 110] |
| 0.067 | – | 23.9 | COc1nn(C)cc1C(=O)N[S@@]1(=O)=NC(=O)c2ccc3c(c2)N(C[C@@H]2CC[C@H]2[C@@](CN2CC(OC)C2)(OC)/C=C/C[C@H](C)C1)C[C@@]1(CCCc2cc(Cl)ccc21)CO3 [Example 117] |
| 0.634 | 2520 | – | COc1nn(C)cc1C(=O)N[S@@]1(=O)=NC(=O)c2ccc3c(c2)N(C[C@@H]2CC[C@H]2[C@@H](OC)/C=C/[C@H](NC(C)=O)[C@H](C)C1)C[C@@]1(CCCc2cc(Cl)ccc21)CO3 [Example 118] |
| 0.035 | 244 | – | COc1nn(C)cc1C(=O)N[S@@]1(=O)=NC(=O)c2ccc3c(c2)N(C[C@@H]2CC[C@H]2/C=C/[C@@H](O)[C@H](NC(C)=O)[C@H](C)C1)C[C@@]1(CCCc2cc(Cl)ccc21)CO3 [Example 119] |
| 0.034 | 35.2 | – | COc1nn(C)cc1C(=O)N[S@@]1(=O)=NC(=O)c2ccc3c(c2)N(C[C@@H]2CC[C@H]2[C@@H](OC)/C=C/[C@@](C)(O)[C@H](C)C1)C[C@@]1(CCCc2cc(Cl)ccc21)CO3 [Example 120] |
| 0.047 | 67.9 | – | COc1nn(C)cc1C(=O)N[S@@]1(=O)=NC(=O)c2ccc3c(c2)N(C[C@@H]2CC[C@H]2[C@H](OC)/C=C/[C@@](C)(O)[C@H](C)C1)C[C@@]1(CCCc2cc(Cl)ccc21)CO3 [Example 121] |
| 0.03 | – | 17.7 | COc1nn(C)cc1C(=O)N[S@@]1(=O)=NC(=O)c2ccc3c(c2)N(C[C@@H]2CC[C@H]2[C@@H](OC)/C=C/[C@@](C)(OC)[C@H](C)C1)C[C@@]1(CCCc2cc(Cl)ccc21)CO3 [Example 122] |
| 0.135 | – | 69.7 | COc1nn(C)cc1C(=O)N[S@@]1(=O)=NC(=O)c2ccc3c(c2)N(C[C@@H]2CC[C@H]2[C@@H](OC)/C=C/[C@](C)(OC)[C@H](C)C1)C[C@@]1(CCCc2cc(Cl)ccc21)CO3 [Example 123] |
| 0.087 | – | 546 | COc1nn(C)cc1C(=O)N[S@@]1(=O)=NC(=O)c2ccc3c(c2)N(C[C@@H]2CC[C@H]2/C=C/C=C\[C@H](C)C1)C[C@@]1(CCCc2cc(Cl)ccc21)CO3 [Example 131] |
| 0.833 | – | 1020 | COc1nn(C)cc1C(=O)N[S@@]1(=O)=NC(=O)c2ccc3c(c2)N(C[C@@H]2CC[C@H]2[C@H](OC)[C@@H](OC)/C=C\[C@H](C)C1)C[C@@]1(CCCc2cc(Cl)ccc21)CO3 [Example 132] |
| 0.643 | – | 1370 | COc1nn(C)cc1C(=O)N[S@@]1(=O)=NC(=O)c2ccc3c(c2)N(C[C@@H]2CC[C@H]2[C@@H](OC)[C@H](OC)/C=C\[C@H](C)C1)C[C@@]1(CCCc2cc(Cl)ccc21)CO3 [Example 133] |
